This is an account of results in patent US20170209445A1, “KINASE INHIBITORS” (Respivert Limited, priority 2014, published 2017).

pIC50: −log10 of the molar value.

The test system of the test is PBMCs. As to the kind of experiment: LPS-induced IL-8 release in PBMC cells. The format is cell-based. The settings on record: Homo sapiens, LPS-stimulated PBMCs, read-out: IC50 Values for Inhibition of Cytokine Release PBMCs IL-8. The procedure:
Peripheral blood mononuclear cells (PBMCs) from healthy subjects are separated from whole blood using a density gradient (Lymphoprep, Axis-Shield Healthcare). The PBMCs are seeded in 96 well plates and treated with compounds at the desired concentration for 2 hours before addition of 1 ng/mL LPS (Escherichia Coli 0111:B4 from Sigma Aldrich) for 24 hours under normal tissue culture conditions (37° C., 5% CO2). The supernatant is harvested for determination of IL-8 and TNFα concentrations by sandwich ELISA (Duo-set, R&D systems) and read on the fluorescence microplate reader (Varioskan® Flash, ThermoFisher Scientific).
Regarding `COCCOCCOCCOc1cc(F)cc(Nc2ncc3cc(-c4cc(C(=O)Nc5cc(C(C)(C)C)cc(NS(C)(=O)=O)c5OC)ccc4C)ccc3n2)c1` [14(l), N-(5-(tert-Butyl)-2-methoxy-3-(methylsulfonamido)phenyl)-3-(2-((3-fluoro-5-(2-(2-(2-methoxyethoxy)ethoxy)ethoxy)phenyl)amino)quinazolin-6-yl)-4-methylbenzamide], the negative logarithm of the IC50 (pIC50) (commonly −log10 of the IC50, conventionally taken in molar units) is 7.78.

Turning to `COc1cc(Nc2ncc3cc(-c4cc(C(=O)Nc5cc(C(C)(C)C)cc(NS(C)(=O)=O)c5OC)ccc4C)ccc3n2)ccc1C(=O)NC1CCN(C)CC1` [14(ac), 4-((6-(5-((5-(tert-Butyl)-2-methoxy-3-(methylsulfonamido)phenyl)carbamoyl)-2-methylphenyl)quinazolin-2-yl)amino)-2-methoxy-N-(1-methylpiperidin-4-yl)benzamide], the pIC50 is 8.29. The same measure for `COc1cc(Nc2ncc3cc(-c4cc(C(=O)Nc5cc(C(C)(C)C)cc(NS(C)(=O)=O)c5OC)ccc4C)ccc3n2)ccc1C(=O)NCCN1CCN(C)C(C)(C)C1` [14(al), 4-((6-(5-((5-(tert-Butyl)-2-methoxy-3-(methylsulfonamido)phenyl)carbamoyl)-2-methyl-phenyl)quinazolin-2-yl)amino)-2-methoxy-N-(2-(3,3,4-trimethylpiperazin-1-yl)ethyl)benzamide]: 8.08; for `COc1cc(Nc2ncc3cc(-c4cc(C(=O)Nc5cc(C(C)(C)C)cc(NS(C)(=O)=O)c5OC)ccc4C)ccc3n2)ccc1C(=O)NCCc1c[nH]cn1` [14(af), N-(2-(1H-Imidazol-4-yl)ethyl)-4-((6-(5-((5-(tert-butyl)-2-methoxy-3-(methylsulfonamido)-phenyl)carbamoyl)-2-methylphenyl)quinazolin-2-yl)amino)-2-methoxybenzamide]: 7.88. The figure for `COc1cc(Nc2ncc3cc(-c4cc(C(=O)Nc5cc(C(C)(C)C)cc(NS(C)(=O)=O)c5OC)ccc4C)ccc3n2)ccc1C(=O)NCCN1CCCC1` [14(ak), 4-((6-(5-((5-(tert-Butyl)-2-methoxy-3-(methylsulfonamido)phenyl)carbamoyl)-2-methylphenyl)quinazolin-2-yl)amino)-2-methoxy-N-(2-(pyrrolidin-1-yl)ethyl)benzamide] is 7.83; for `COc1c(NC(=O)c2ccc(C)c(-c3ccc4nc(Nc5cc(C#N)cc(OCCN6CCOCC6)c5)ncc4c3)c2)cc(C(C)(C)C)cc1NS(C)(=O)=O` [14(b), N-(5-(tert-Butyl)-2-methoxy-3-(methylsulfonamido)phenyl)-3-(2-((3-cyano-5-(2-morpholinoethoxy)phenyl)amino)quinazolin-6-yl)-4-methylbenzamide] it is 7.82; for `COc1cc(Nc2ncc3cc(-c4cc(C(=O)Nc5cc(C(C)(C)C)cc(NS(C)(=O)=O)c5OC)ccc4C)ccc3n2)ccc1C(=O)NCCN1CCCOCC1` [14(y), N-(2-(1,4-Oxazepan-4-yl)ethyl)-4-((6-(5-((5-(tert-butyl)-2-methoxy-3-(methylsulfonamido)-phenyl)carbamoyl)-2-methylphenyl)quinazolin-2-yl)amino)-2-methoxybenzamide] it is 8.34. The figure for `COc1cc(Nc2ncc3cc(-c4cc(C(=O)Nc5cc(C(C)(C)C)cc(NS(C)(=O)=O)c5OC)ccc4C)ccc3n2)ccc1C(=O)NCCC1CCN(C)CC1` [14(aa), 4-((6-(5-((5-(tert-Butyl)-2-methoxy-3-(methylsulfonamido)phenyl)carbamoyl)-2-methyl-phenyl)quinazolin-2-yl)amino)-2-methoxy-N-(2-(1-methylpiperidin-4-yl)ethyl)benzamide] is 8.02; for `COc1cc(Nc2ncc3cc(-c4cc(C(=O)Nc5cc(C(C)(C)C)cc(NS(C)(=O)=O)c5OC)ccc4C)ccc3n2)cc(S(=O)(=O)N(C)CCCN2CCOCC2)c1` [14(e), N-(5-(tert-Butyl)-2-methoxy-3-(methylsulfonamido)phenyl)-3-(2-((3-methoxy-5-(N-methyl-N-(3-morpholinopropyl)sulfamoyl)phenyl)amino)quinazolin-6-yl)-4-methylbenzamide] it is 7.69; for `COc1cc(Nc2ncc3cc(-c4cc(C(=O)Nc5cc(C(C)(C)C)cc(NS(C)(=O)=O)c5OC)ccc4C)ccc3n2)cc(S(=O)(=O)N(C)CCN2CCOCC2)c1` [14(c), N-(5-(tert-Butyl)-2-methoxy-3-(methylsulfonamido)phenyl)-3-(2-((3-methoxy-5-(N-methyl-N-(2-morpholinoethyl)sulfamoyl)phenyl)amino)quinazolin-6-yl)-4-methylbenzamide] it is 7.73.

Consider `C#Cc1cc(Nc2ncc3cc(-c4cc(C(=O)Nc5cc(C(C)(C)C)cc(NS(C)(=O)=O)c5OC)ccc4C)ccc3n2)cc(OCCOCCOCCOC)c1` [14(k), N-(5-(tert-Butyl)-2-methoxy-3-(methylsulfonamido)phenyl)-3-(2-((3-ethynyl-5-(2-(2-(2-methoxyethoxy)ethoxy)ethoxy)phenyl)amino)quinazolin-6-yl)-4-methylbenzamide], for which the pIC50 is 7.78.

`COc1cc(Nc2ncc3cc(-c4cc(C(=O)Nc5cc(C(C)(C)C)cc(NS(C)(=O)=O)c5OC)ccc4C)ccc3n2)ccc1C(=O)NCCN1CCOCC1` [14(am), 4-((6-(5-((5-(tert-Butyl)-2-methoxy-3-(methylsulfonamido)phenyl)carbamoyl)-2-methylphenyl)quinazolin-2-yl)amino)-2-methoxy-N-(2-morpholinoethyl)benzamide]: the pIC50 was 7.71. The figure for `COc1c(NC(=O)c2ccc(C)c(-c3ccc4nc(Nc5ccc(S(C)(=N)=O)cc5)ncc4c3)c2)cc(C(C)(C)C)cc1NS(C)(=O)=O` (centres unmarked) [14(t), N-(5-(tert-Butyl)-2-methoxy-3-(methylsulfonamido)phenyl)-4-methyl-3-(2-((4-(S-methylsulfonimidoyl)phenyl)amino)quinazolin-6-yl)benzamide] is 7.17; for `COc1cc(Nc2ncc3cc(-c4cc(C(=O)Nc5cc(C(C)(C)C)cc(NS(C)(=O)=O)c5OC)ccc4C)ccc3n2)cc(C(=O)O)c1` [14(o), 3-((6-(5-((5-(tert-Butyl)-2-methoxy-3-(methylsulfonamido)phenyl)carbamoyl)-2-methylphenyl)quinazolin-2-yl)amino)-5-methoxybenzoic acid] it is 7.55; for `COc1cc(Nc2ncc3cc(-c4cc(C(=O)Nc5cc(C(C)(C)C)cc(NS(C)(=O)=O)c5OC)ccc4C)ccc3n2)ccc1C(=O)NCC1CCN(C)CC1` [14(ai), 4-((6-(5-((5-(tert-Butyl)-2-methoxy-3-(methylsulfonamido)phenyl)carbamoyl)-2-methylphenyl)quinazolin-2-yl)amino)-2-methoxy-N-((1-methylpiperidin-4-yl)methyl)benzamide] it is 8.10.

For the compound `COc1cc(Nc2ncc3cc(-c4cc(C(=O)Nc5cc(C(C)(C)C)cc(NS(C)(=O)=O)c5OC)ccc4C)ccc3n2)ccc1C(=O)NC1CCS(=O)(=O)CC1` [14(an), 4-((6-(5-((5-(tert-Butyl)-2-methoxy-3-(methylsulfonamido)phenyl)carbamoyl)-2-methylphenyl)quinazolin-2-yl)amino)-N-(1,1-dioxidotetrahydro-2H-thiopyran-4-yl)-2-methoxybenzamide], the pIC50 is 7.91. For `COc1c(NC(=O)c2ccc(C)c(-c3ccc4nc(Nc5cccc(OS(C)(=O)=O)c5)ncc4c3)c2)cc(C(C)(C)C)cc1NS(C)(=O)=O` [14(a), 3-((6-(5-((5-(tert-Butyl)-2-methoxy-3-(methylsulfonamido)phenyl)carbamoyl)-2-methylphenyl)quinazolin-2-yl)amino)phenyl methanesulfonate], the pIC50 is 7.51.
